Results on 30 molecules are retold here after patent US8541407B2 (ArQule, Inc., priority 2010, dated 2013).

Counter-ions that a name gives are not always drawn.

Chain of AKT1 (P31749 whole entry): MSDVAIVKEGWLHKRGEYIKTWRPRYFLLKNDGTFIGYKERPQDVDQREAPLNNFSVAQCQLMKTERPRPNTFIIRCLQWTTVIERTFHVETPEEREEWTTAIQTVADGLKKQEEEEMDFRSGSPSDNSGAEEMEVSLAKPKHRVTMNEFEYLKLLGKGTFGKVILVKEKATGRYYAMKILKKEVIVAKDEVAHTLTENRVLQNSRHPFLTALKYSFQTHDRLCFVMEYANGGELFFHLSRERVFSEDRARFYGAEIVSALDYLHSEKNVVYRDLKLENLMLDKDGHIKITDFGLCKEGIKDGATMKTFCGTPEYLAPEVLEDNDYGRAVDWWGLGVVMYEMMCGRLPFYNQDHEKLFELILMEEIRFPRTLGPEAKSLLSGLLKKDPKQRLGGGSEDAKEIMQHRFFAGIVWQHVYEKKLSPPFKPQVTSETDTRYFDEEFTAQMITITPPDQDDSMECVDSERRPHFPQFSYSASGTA

For this assay, the target named is AKT1 (Homo sapiens (Human), UniProt P31749). Nature of the assay: Inactive Akt Alpha Screen Assay. Conditions: non *labeled: Akt Alpha Screen assay; read-out: AKT1 biochemical assay, IC50. Here is the method:
AKT1 activity was assayed using the GSK3-derived biotinylated peptide substrate, crosstide (biotin-[…]), and AlphaScreen™ (Amplified Luminescent Proximity Homogeneous Assay) technology. AKT1 activation was achieved by the addition of the activating kinases PDK1 and MAPKAPK2, lipid vesicles, and ATP. The extent of peptide phosphorylation was determined using a phospho-AKT substrate antibody and acceptor beads conjugated to Protein A and donor beads conjugated to streptavidin that bind to the biotin on the peptide. Excitation of the donor beads converted ambient oxygen to excited singlet oxygen which, when in close proximity to acceptor beads, reacted with acceptor beads resulting in signal amplification. […] The plates were incubated for 30 minutes at room temperature, and then stopped in the dark by the addition of 10 μL stop/detection mixture prepared in assay buffer containing EDTA, AlphaScreen™ Streptavidin Donor and Protein A Acceptor beads, and phospho-AKT substrate antibody for final concentrations of 10 mM EDTA, 500 ng/well of both AlphaScreen™ Streptavidin Donor beads and Protein A Acceptor beads, and phospho-AKT substrate antibody at a final dilution of 1:350. Assay plates were incubated for 90 minutes at room temperature in the dark, and the plates were read on a Perkin Elmer Envision Multilabel plate reader (excitation wavelength: […], emission wavelength: 570 nm). […] Envision Instrument Settings: • Instrument: Perkin Elmer Envision • Plate: 96 well • Program Name: • Excitation: Ex Top • Mirror: General Dual—Slot 2 • Excitation Filter: CFP430 Ex.
As a reminder, the IC50 is the point on the concentration scale where inhibition reaches its midpoint. As for `O=S(=O)(NC1CCN(Cc2ccc(-c3nnc4n3-c3cccnc3Nc3ccccc3-4)cc2)CC1)c1ccccc1F` [Example 147, N-(1-(4-(9H-benzo[f]pyrido[2,3-b][1,2,4]triazolo[4,3-d][1,4]diazepin-3-yl)benzyl)piperidin-4-yl)-2-fluorobenzenesulfonamide], the IC50 was found to be 2300 nM.

In the case of `O=C(Nc1ccc(-c2nnc3n2-c2cccnc2Nc2ccccc2-3)cc1)c1ccc2c(c1)OCO2` [Example 47, N-(4-(9H-benzo[f]pyrido[2,3-b][1,2,4]triazolo[4,3-d][1,4]diazepin-3-yl)phenyl)benzo[d][1,3]dioxole-5-carboxamide], the IC50 is 53 nM.

Turning to `O=C1CCCN1CCCNCc1ccc(-c2nnc3n2-c2cccnc2Nc2ccccc2-3)cc1` [Example 78, 1-(3-((4-(9H-benzo[f]pyrido[2,3-b][1,2,4]triazolo[4,3-d][1,4]diazepin-3-yl)benzyl)amino)propyl)pyrrolidin-2-one], the IC50 was found to be 4400 nM.

As for `O=C(Cc1ccccc1)Nc1ccc(-c2nnc3n2-c2cccnc2Nc2ccccc2-3)cc1` [Example 49, N-(4-(9H-benzo[f]pyrido[2,3-b][1,2,4]triazolo[4,3-d][1,4]diazepin-3-yl)phenyl)-2-phenylacetamide], the IC50 worked out at 240 nM. As to `CCN(CC)C(=O)C1CCCN(Cc2ccc(-c3nnc4n3-c3cccnc3Nc3ccccc3-4)cc2)C1` (stereo not drawn) [Example 81, 1-(4-(9H-benzo[f]pyrido[2,3-b][1,2,4]triazolo[4,3-d][1,4]diazepin-3-yl)benzyl)-N,N-diethylpiperidine-3-carboxamide], the IC50 amounted to 4800 nM. Under `CC(=O)c1ccc(S(=O)(=O)NC2CCN(Cc3ccc(-c4nnc5n4-c4cccnc4Nc4ccccc4-5)cc3)CC2)cc1` [Example 155, N-(1-(4-(9H-benzo[f]pyrido[2,3-b][1,2,4]triazolo[4,3-d][1,4]diazepin-3-yl)benzyl)piperidin-4-yl)-4-acetylbenzenesulfonamide] stands 3400 nM. Under `NC1(c2ccc(-c3nnc4n3-c3cccnc3Nc3ccccc3-4)cc2)CCCCC1` [Example 217, 1-(4-(9H-benzo[f]pyrido[2,3-b][1,2,4]triazolo[4,3-d][1,4]diazepin-3-yl)phenyl)cyclohexanamine] stands 500 nM. Next, `N#Cc1ccc(C(=O)N2CCN(Cc3ccc(-c4nnc5n4-c4cccnc4Nc4ccccc4-5)cc3)CC2)cc1` [Example 139, 4-(4-(4-(9H-benzo[f]pyrido[2,3-b][1,2,4]triazolo[4,3-d][1,4]diazepin-3-yl)benzyl)piperazine-1-carbonyl)benzonitrile]: 990 nM; `COc1ccc(NC(=O)NC2CCN(Cc3ccc(-c4nnc5n4-c4cccnc4Nc4ccccc4-5)cc3)CC2)cc1Cl` [Example 172, 1-(1-(4-(9H-benzo[f]pyrido[2,3-b][1,2,4]triazolo[4,3-d][1,4]diazepin-3-yl)benzyl)piperidin-4-yl)-3-(3-chloro-4-methoxyphenyl)urea]: 1200 nM; `O=C(Nc1ccc(-c2nnc3n2-c2cccnc2Nc2ccccc2-3)cc1)c1cccc2ccccc12` [Example 34, N-(4-(9H-benzo[f]pyrido[2,3-b][1,2,4]triazolo[4,3-d][1,4]diazepin-3-yl)phenyl)-1-naphthamide]: 640 nM. Regarding `O=S(=O)(CC1CCCCC1)NC1CCN(Cc2ccc(-c3nnc4n3-c3cccnc3Nc3ccccc3-4)cc2)CC1` [Example 148, N-(1-(4-(9H-benzo[f]pyrido[2,3-b][1,2,4]triazolo[4,3-d][1,4]diazepin-3-yl)benzyl)piperidin-4-yl)-1-cyclohexylmethanesulfonamide], the IC50 came to 3400 nM. On to `O=S(=O)(NCc1ccc(-c2nnc3n2-c2cccnc2Nc2ccccc2-3)cc1)c1cccnc1` [Example 105, N-(4-(9H-benzo[f]pyrido[2,3-b][1,2,4]triazolo[4,3-d][1,4]diazepin-3-yl)benzyl)pyridine-3-sulfonamide], for which the IC50 was 220 nM. For `COCCNCc1ccc(-c2nnc3n2-c2cccnc2Nc2ccccc2-3)cc1` [Example 73, N-(4-(9H-benzo[f]pyrido[2,3-b][1,2,4]triazolo[4,3-d][1,4]diazepin-3-yl)benzyl)-2-methoxyethanamine], the IC50 turned out to be 4600 nM. For the molecule `O=S(=O)(NC1CCN(Cc2ccc(-c3nnc4n3-c3cccnc3Nc3ccccc3-4)cc2)CC1)c1cccc(F)c1` [Example 157, N-(1-(4-(9H-benzo[f]pyrido[2,3-b][1,2,4]triazolo[4,3-d][1,4]diazepin-3-yl)benzyl)piperidin-4-yl)-3-fluorobenzenesulfonamide], the IC50 was found to be 2700 nM.

`Cn1ccc(S(=O)(=O)NC2(c3ccc(-c4nnc5n4-c4cccnc4Nc4ccccc4-5)cc3)CCC2)n1` [Example 205, N-(1-(4-(9H-benzo[f]pyrido[2,3-b][1,2,4]triazolo[4,3-d][1,4]diazepin-3-yl)phenyl)cyclobutyl)-1-methyl-1H-pyrazole-3-sulfonamide]: the IC50 amounted to 640 nM. Next, `c1ccc(-c2nnc3n2-c2ccccc2Nc2ccccc2-3)cc1` [Example 20, 3-phenyl-9H-dibenzo[b,f][1,2,4]triazolo[4,3-d][1,4]diazepine]: 1900 nM; `O=S(=O)(NCCc1ccc(-c2nnc3n2-c2cccnc2Nc2ccccc2-3)cc1)c1ccccc1` [Example 108, N-(4-(9H-benzo[f]pyrido[2,3-b][1,2,4]triazolo[4,3-d][1,4]diazepin-3-yl)phenethyl)benzenesulfonamide]: 5800 nM; `Cc1noc(C)c1S(=O)(=O)NC1CCN(Cc2ccc(-c3nnc4n3-c3cccnc3Nc3ccccc3-4)cc2)CC1` [Example 146, N-(1-(4-(9H-benzo[f]pyrido[2,3-b][1,2,4]triazolo[4,3-d][1,4]diazepin-3-yl)benzyl)piperidin-4-yl)-3,5-dimethylisoxazole-4-sulfonamide]: 6800 nM. Next, `NC1(c2ccc(-c3nnc4n3-c3cnccc3Nc3ccccc3-4)cc2)CCC1` [Example 220, 1-(4-(9H-benzo[f]pyrido[4,3-b][1,2,4]triazolo[4,3-d][1,4]diazepin-3-yl)phenyl)cyclobutanamine]: 5000 nM.

Consider `O=C(NC1(c2ccc(-c3nnc4n3-c3ccc(Cl)nc3Nc3ccccc3-4)cc2)CCC1)C(F)(F)F` [Example 226, N-(1-(4-(7-chloro-9H-benzo[f]pyrido[2,3-b][1,2,4]triazolo[4,3-d][1,4]diazepin-3-yl)phenyl)cyclobutyl)-2,2,2-trifluoroacetamide], for which the IC50 was 9300 nM. On to `O=C(NCc1ccccc1Cl)NC1CCN(Cc2ccc(-c3nnc4n3-c3cccnc3Nc3ccccc3-4)cc2)CC1` [Example 173, 1-(1-(4-(9H-benzo[f]pyrido[2,3-b][1,2,4]triazolo[4,3-d][1,4]diazepin-3-yl)benzyl)piperidin-4-yl)-3-(2-chlorobenzyl)urea], for which the IC50 turned out to be 910 nM.

As for `CCC(=O)Nc1ccc(-c2nnc3n2-c2cccnc2Nc2ccccc2-3)cc1` [Example 39, N-(4-(9H-benzo[f]pyrido[2,3-b][1,2,4]triazolo[4,3-d][1,4]diazepin-3-yl)phenyl)propionamide], the IC50 was determined as 1800 nM. As for `CC(C)(C)C(=O)Nc1ccc(-c2nnc3n2-c2cccnc2Nc2ccccc2-3)cc1` [Example 43, N-(4-(9H-benzo[f]pyrido[2,3-b][1,2,4]triazolo[4,3-d][1,4]diazepin-3-yl)phenyl)pivalamide], the concentration for half-maximal inhibition (IC50) was 420 nM. For the molecule `c1ccc2c(c1)Nc1ncccc1-n1c(-c3ccc4ccccc4c3)nnc1-2` [hydrochloride], the IC50 amounted to 29000 nM. Consider `Oc1ccc(-c2nnc3n2-c2cccnc2Nc2ccccc2-3)cc1` [Example 19, 4-(9H-benzo[f]pyrido[2,3-b][1,2,4]triazolo[4,3-d][1,4]diazepin-3-yl)phenol], for which the IC50 came out at 2200 nM.

Take `COc1ccccc1NC(=O)NC1CCN(Cc2ccc(-c3nnc4n3-c3cccnc3Nc3ccccc3-4)cc2)CC1` [Example 183, 1-(1-(4-(9H-benzo[f]pyrido[2,3-b][1,2,4]triazolo[4,3-d][1,4]diazepin-3-yl)benzyl)piperidin-4-yl)-3-(2-methoxyphenyl)urea]: the IC50 was determined as 700 nM. Under `CC(=O)Nc1ccc(S(=O)(=O)NC2CCN(Cc3ccc(-c4nnc5n4-c4cccnc4Nc4ccccc4-5)cc3)CC2)cc1` [Example 151, N-(4-(N-(1-(4-(9H-benzo[f]pyrido[2,3-b][1,2,4]triazolo[4,3-d][1,4]diazepin-3-yl)benzyl)piperidin-4-yl)sulfamoyl)phenyl)acetamide] stands 5000 nM; under `O=C(Nc1ccc(-c2nnc3n2-c2cccnc2Nc2ccccc2-3)cc1)c1ccc(-c2ccccc2)cc1` [Example 61, N-(4-(9H-benzo[f]pyrido[2,3-b][1,2,4]triazolo[4,3-d][1,4]diazepin-3-yl)phenyl)-[1,1′-biphenyl]-4-carboxamide], 780 nM.

`c1ccc(-c2nnc3n2-c2cccnc2Nc2ccccc2-3)cc1` [Example 1, 3-phenyl-9H-benzo[f]pyrido[2,3-b][1,2,4]triazolo[4,3-d][1,4]diazepine]: the IC50 turned out to be 2800 nM.

With `CC(C)CN(C)Cc1ccc(-c2nnc3n2-c2cccnc2Nc2ccccc2-3)cc1` [Example 85, N-(4-(9H-benzo[f]pyrido[2,3-b][1,2,4]triazolo[4,3-d][1,4]diazepin-3-yl)benzyl)-N,2-dimethylpropan-1-amine], the IC50 was 7100 nM.
